From PubChem BioAssay (NCI)
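Abbreviation: GI50, concentration required for 50% inhibition of growth. TGI denotes the concentration required for complete inhibition of growth.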

How the values were obtained:
Experiment in all cases: growth of human tumour cells (NCI), 384-well format
HOP-62 NSCLC = test system: HOP-62 NSCLC
DU-145 prostate = test system: DU-145 prostate
MDA-MB-468 breast = test system: MDA-MB-468 breast
HS 578T breast = test system: HS 578T breast
SNB-75 CNS = test system: SNB-75 CNS
T-47D breast = test system: T-47D breast
HOP-92 NSCLC = test system: HOP-92 NSCLC
EKVX NSCLC = test system: EKVX NSCLC
SN12C renal = test system: SN12C renal
SNB-19 CNS = test system: SNB-19 CNS
A549 NSCLC = test system: A549 NSCLC
SR leukemia = test system: SR leukemia
RPMI-8226 leukemia = test system: RPMI-8226 leukemia
NCI-H322M lung = test system: NCI-H322M lung
M14 melanoma = test system: M14 melanoma
HL-60(TB) leukemia = test system: HL-60(TB) leukemia
SF-268 CNS = test system: SF-268 CNS
COLO 205 colon = test system: COLO 205 colon
SW-620 colon = test system: SW-620 colon
HCT-15 colon = test system: HCT-15 colon
OVCAR-4 ovarian = test system: OVCAR-4 ovarian
UO-31 renal = test system: UO-31 renal
HCC-2998 colon = test system: HCC-2998 colon
NCI-H23 lung = test system: NCI-H23 lung
TK-10 renal = test system: TK-10 renal
NCI-H522 lung = test system: NCI-H522 lung
SK-MEL-28 melanoma = test system: SK-MEL-28 melanoma
IGROV1 ovarian = test system: IGROV1 ovarian
SK-MEL-2 melanoma = test system: SK-MEL-2 melanoma
OVCAR-5 ovarian = test system: OVCAR-5 ovarian
ACHN renal = test system: ACHN renal
OVCAR-8 ovarian = test system: OVCAR-8 ovarian
SF-539 CNS = test system: SF-539 CNS
SF-295 CNS = test system: SF-295 CNS
PC-3 prostate = test system: PC-3 prostate
OVCAR-3 ovarian = test system: OVCAR-3 ovarian
NCI-H460 NSCLC = test system: NCI-H460 NSCLC
KM12 colon = test system: KM12 colon
HT29 colon = test system: HT29 colon
SK-OV-3 ovarian = test system: SK-OV-3 ovarian
NCI-H226 lung = test system: NCI-H226 lung
MOLT-4 leukemia = test system: MOLT-4 leukemia
LOX IMVI melanoma = test system: LOX IMVI melanoma
SK-MEL-5 melanoma = test system: SK-MEL-5 melanoma
A498 renal = test system: A498 renal
MDA-MB-435 melanoma = test system: MDA-MB-435 melanoma
MCF7 breast = test system: MCF7 breast
CAKI-1 renal = test system: CAKI-1 renal
MALME-3M melanoma = test system: MALME-3M melanoma
CCRF-CEM leukemia = test system: CCRF-CEM leukemia
RXF 393 renal = test system: RXF 393 renal
MDA-MB-231 breast = test system: MDA-MB-231 breast
HCT-116 colon = test system: HCT-116 colon
U251 glioblastoma = test system: U251 glioblastoma
UACC-257 melanoma = test system: UACC-257 melanoma
UACC-62 melanoma = test system: UACC-62 melanoma
BT-549 breast = test system: BT-549 breast
786-0 renal = test system: 786-0 renal
NCI/ADR-RES ovarian = test system: NCI/ADR-RES ovarian

Compound `O=C(Nc1ccc(OC(F)(F)Cl)cc1)c1cnc(N2CC[C@@H](O)C2)c(-c2ccn[nH]2)c1` has a GI50 (HOP-62 NSCLC) of 9.4 µM, a TGI (HOP-62 NSCLC) of 22.7 µM and a GI50 (DU-145 prostate) of 17.7 µM. For the same compound, the TGI (DU-145 prostate) was 32.8 µM, the GI50 (MDA-MB-468 breast) was 3.89 µM and the TGI (MDA-MB-468 breast) was 15 µM. It also gave a GI50 (HS 578T breast) of 12.6 µM, a TGI (HS 578T breast) of 25.3 µM and a GI50 (SNB-75 CNS) of 7.86 µM. The TGI (SNB-75 CNS) was 20.9 µM, the GI50 (T-47D breast) was 2.97 µM and the TGI (T-47D breast) was 10.7 µM. The GI50 (HOP-92 NSCLC) was 13.7 µM, the TGI (HOP-92 NSCLC) was 26.8 µM and the GI50 (EKVX NSCLC) was 14 µM. It also gave a TGI (EKVX NSCLC) of 28.8 µM, a GI50 (SN12C renal) of 13.7 µM and a TGI (SN12C renal) of 26.8 µM. The GI50 (SNB-19 CNS) was 14.5 µM, the TGI (SNB-19 CNS) was 27.9 µM and the GI50 (A549 NSCLC) was 13.3 µM. For the same compound, the TGI (A549 NSCLC) was 29.7 µM, the GI50 (SR leukemia) was 1.94 µM and the TGI (SR leukemia) was 4.74 µM. It also gave a GI50 (RPMI-8226 leukemia) of 3.27 µM, a TGI (RPMI-8226 leukemia) of 12.2 µM and a GI50 (NCI-H322M lung) of 12.3 µM. For the same compound, the TGI (NCI-H322M lung) was 25.1 µM, the GI50 (M14 melanoma) was 10.5 µM and the TGI (M14 melanoma) was 22.9 µM. For the same compound, the GI50 (HL-60(TB) leukemia) was 2.77 µM, the TGI (HL-60(TB) leukemia) was 6.75 µM and the GI50 (SF-268 CNS) was 10.6 µM. The TGI (SF-268 CNS) was 23.4 µM, the GI50 (COLO 205 colon) was 5.01 µM and the TGI (COLO 205 colon) was 16.6 µM. The GI50 (SW-620 colon) was 7.75 µM, the TGI (SW-620 colon) was 19.7 µM and the GI50 (HCT-15 colon) was 2.94 µM. It also gave a TGI (HCT-15 colon) of 10.9 µM, a GI50 (OVCAR-4 ovarian) of 6.92 µM and a TGI (OVCAR-4 ovarian) of 26.9 µM. It also gave a GI50 (UO-31 renal) of 11.6 µM, a TGI (UO-31 renal) of 24.2 µM and a GI50 (HCC-2998 colon) of 2.85 µM. For the same compound, the TGI (HCC-2998 colon) was 8.48 µM, the GI50 (NCI-H23 lung) was 12.3 µM and the TGI (NCI-H23 lung) was 25.9 µM. It also gave a GI50 (TK-10 renal) of 10.8 µM, a TGI (TK-10 renal) of 26.4 µM and a GI50 (NCI-H522 lung) of 11.7 µM. For the same compound, the TGI (NCI-H522 lung) was 24.3 µM, the GI50 (SK-MEL-28 melanoma) was 15 µM and the TGI (SK-MEL-28 melanoma) was 28.5 µM. The GI50 (IGROV1 ovarian) was 10.9 µM, the TGI (IGROV1 ovarian) was 23.6 µM and the GI50 (SK-MEL-2 melanoma) was 15.4 µM. It also gave a TGI (SK-MEL-2 melanoma) of 28.8 µM, a GI50 (OVCAR-5 ovarian) of 12.1 µM and a TGI (OVCAR-5 ovarian) of 25.7 µM. The GI50 (ACHN renal) was 12.1 µM, the TGI (ACHN renal) was 29.4 µM and the GI50 (OVCAR-8 ovarian) was 6.65 µM. It also gave a TGI (OVCAR-8 ovarian) of 19.5 µM, a GI50 (SF-539 CNS) of 10.1 µM and a TGI (SF-539 CNS) of 22.5 µM. For the same compound, the GI50 (SF-295 CNS) was 11.1 µM, the TGI (SF-295 CNS) was 23.2 µM and the GI50 (PC-3 prostate) was 13.6 µM. It also gave a TGI (PC-3 prostate) of 26.8 µM, a GI50 (OVCAR-3 ovarian) of 11.1 µM and a TGI (OVCAR-3 ovarian) of 23.3 µM. The GI50 (NCI-H460 NSCLC) was 3.95 µM, the TGI (NCI-H460 NSCLC) was 13.3 µM and the GI50 (KM12 colon) was 4.57 µM. It also gave a TGI (KM12 colon) of 15.4 µM, a GI50 (HT29 colon) of 2.57 µM and a TGI (HT29 colon) of 6.27 µM. For the same compound, the GI50 (SK-OV-3 ovarian) was 16 µM, the TGI (SK-OV-3 ovarian) was 30.7 µM and the GI50 (NCI-H226 lung) was 4.76 µM. It also gave a TGI (NCI-H226 lung) of 17 µM, a GI50 (MOLT-4 leukemia) of 5.82 µM and a TGI (MOLT-4 leukemia) of 18.3 µM. For the same compound, the GI50 (LOX IMVI melanoma) was 7.26 µM, the TGI (LOX IMVI melanoma) was 20.2 µM and the GI50 (SK-MEL-5 melanoma) was 4.81 µM. The TGI (SK-MEL-5 melanoma) was 17.2 µM, the GI50 (A498 renal) was 13.6 µM and the TGI (A498 renal) was 26.8 µM. The GI50 (MDA-MB-435 melanoma) was 12 µM, the TGI (MDA-MB-435 melanoma) was 24.8 µM and the GI50 (MCF7 breast) was 9.56 µM. It also gave a TGI (MCF7 breast) of 21.9 µM, a GI50 (CAKI-1 renal) of 8.07 µM and a TGI (CAKI-1 renal) of 21.1 µM. The GI50 (MALME-3M melanoma) was 6.97 µM, the TGI (MALME-3M melanoma) was 20.5 µM and the GI50 (CCRF-CEM leukemia) was 3.01 µM. For the same compound, the TGI (CCRF-CEM leukemia) was 10.6 µM, the GI50 (RXF 393 renal) was 3.84 µM and the TGI (RXF 393 renal) was 14.1 µM. For the same compound, the GI50 (MDA-MB-231 breast) was 10.4 µM, the TGI (MDA-MB-231 breast) was 22.5 µM and the GI50 (HCT-116 colon) was 10.9 µM. The TGI (HCT-116 colon) was 23.7 µM, the GI50 (U251 glioblastoma) was 7.26 µM and the TGI (U251 glioblastoma) was 20 µM. The GI50 (UACC-257 melanoma) was 9.12 µM, the TGI (UACC-257 melanoma) was 22.5 µM and the GI50 (UACC-62 melanoma) was 11.6 µM. For the same compound, the TGI (UACC-62 melanoma) was 23.9 µM, the GI50 (BT-549 breast) was 14.8 µM and the TGI (BT-549 breast) was 28.2 µM. It also gave a GI50 (786-0 renal) of 5.38 µM, a TGI (786-0 renal) of 17.2 µM and a GI50 (NCI/ADR-RES ovarian) of 19.3 µM. For the same compound, the TGI (NCI/ADR-RES ovarian) was 41.9 µM.
